Experimental data taken from US20120276064A1, “METHODS AND COMPOSITIONS FOR REJUVENATION AND EXPANSION OF STEM CELLS” (priority 2011, published 2012).
“Also recorded” adds a separate entry of the source.

Tests used:
[1] = test system: p21, Myogenin, Pax7 transcripts in MuSCs; assay: Quantitative real-time PCR gene expression in hydrogel-cultured MuSCs; assay type: cell-based, mouse; settings: old MuSCs, soft hydrogel, 10 μM, one week
Experimental: MuSC culture and treatment. Following isolation, MuSCs were pelleted and resuspended into myogenic cell culture medium containing DMEM/F10 (50:50), 15% FBS, 2.5 ng/ml bFGF, and 1% penicillin/streptomycin. MuSCs were seeded at 1000 cells per well (24-well plate size wells, 2.0 cm^2 surface area) on laminin-tethered hydrogels of either 12 kPa (soft) or ˜10^6 kPa (rigid) rigidities. Cells were maintained at 37° C. in 5% CO2. Media was changed daily. For proliferation and p38 inhibition studies, the following ligands/inhibitors were supplemented in the myogenic medium and maintained consistently through the experiment: 25 ng/ml Wnt7a (R&D Systems, Minneapolis, Minn.), 25 ng/ml Jagged1-Fc (R&D Systems, Minneapolis, Minn.), 10 nM tautomycetin (PP1 inhibitor; Tocris Bioscience, Ellisville, Mo.), 10 μM SB202190 or 10 μM SB203580 (p38 inhibitors; EMD Chemicals, Gibbstown, N.J.), 1 μM SB431542 (ALK4/5/7 inhibitor; Tocris Bioscience), or 0.1% DMSO carrier control. All MuSC cell culture assays and transplantations were performed after one week of culture unless noted otherwise.
Quantitative real-time PCR. RNA was isolated from freshly isolated and cultured cells using the RNeasy Micro kit (Qiagen, Valencia, Calif.). Total RNA from each sample was reverse transcribed using the High Capacity cDNA RT kit (Applied Biosystems, Carlsbad, Calif.). cDNA was subjected to real-time PCR using a SYBR Green PCR Master Mix (Applied Biosystems). Real-time PCR was performed using an ABI 7900HT Real Time PCR system and software (Applied Biosystems). Samples were cycled at 95° C. for 10 min and then 40 cycles of 95° C. for 15 sec and 60° C. for 1 min. To quantify relative transcript levels, the 2^−ΔΔCt method was used, and freshly isolated young MuSCs were used as reference value (plotted as 1 in all graphs). Gapdh was used as a normalizing gene. Primer sequences for Gapdh, p21, myogenin, and Pax7 were obtained from literature or using NIH Primer3.

[2] = test system: MuSCs transplanted into tibialis anterior muscle; assay: Transplantation of cultured MuSCs into irradiated NOD/SCID mice, engraftment by bioluminescence imaging; assay type: in vivo, mouse; settings: for Improvement of transplantation function of MuSCs cultured on rigid hydrogels: young and old MuSCs, rigid (~10^6 kPa) hydrogel, 10 μM, one week, 100 cells transplanted
Experimental: MuSC transplantation. MuSCs were transplanted immediately following FACS isolation or after collection from cell culture directly into the tibialis anterior muscle of recipient mice as previously described. Cells from GFP/Luciferase or Myf5^nLacZl+/Luciferase mice were transplanted into gender-matched, hindlimb-irradiated NOD/SCID (Jackson) mice. NOD/SCID (2-4 months of age, median 2 months) mice were anesthetized with ketamine (2.4 mg per mouse) and xylazine (240 μg per mouse) by intraperitoneal injection then were irradiated by a single dose of 18 Gy administered to the hindlimbs, with the rest of the body shielded in a lead jig. Transplantation was performed within three days post-irradiation. In syngeneic transplant studies, cells from old C57BL/6 mice were transplanted into gender-matched, littermate old C57BL/6 mice (Jackson) following culture for one week on soft hydrogels. Specifically, old C57BL/6 MuSCs were infected with a GFP/Luciferase lentivirus added at day 2 of culture for 24 hours. Recipient old C57BL/6 mice were acutely injured by a single 10 μl intramuscular injection of notexin (10 μg/ml; Latoxan, France) two days prior to cell transplantation, but were not irradiated. Freshly isolated or cultured cells were counted by hemocytometer and resuspended at desired cell concentrations in PBS with 2.5% goat serum and 1 mM EDTA. Cells were collected from hydrogel cultures by incubation with 0.5% trypsin in PBS for 2 min at 37° C. and counted using a hemocytometer. Cells were transplanted by intramuscular injection into the tibialis anterior muscle in a 10 μl volume.
Tissue histology. Recipient tibialis anterior muscle tissues were prepared for histology as previously described to analyze GFP expression. Transverse sections were incubated with anti-laminin (Millipore, Billerica, Calif.), anti-GFP (Invitrogen) antibodies, and/or anti-β-galactosidase (Abcam, Cambridge, Mass.) with appropriate secondary antibodies (Invitrogen). Nuclei were counter-stained with Hoechst 33342 (Invitrogen). Images were acquired with an AxioPlan2 epi-fluorescent microscope (Carl Zeiss Microimaging, Thornwood, N.Y.) with Plan NeoFluar 10×/0.30NA or 20×/0.75NA objectives (Carl Zeiss) and an ORCA-ER digital camera (Hamamatsu Photonics, Bridgewater, N.J.). Digital images were captured in OpenLab software (Improvision, Waltham, Mass.) and assembled in Photoshop software (Adobe, San Jose, Calif.) with consistent contrast adjustments across all images from the same stain.
Bioluminescence imaging. Bioluminescence imaging was performed using a Xenogen-100 system, as previously described. Briefly, mice were anesthetized under isofluorane and 100 μL luciferin (0.1 mmol/kg; Caliper LifeSciences, Hopkinton, Mass.) in PBS was administered by intraperitoneal injection. Following luciferin administration, images were acquired every minute for 15 min. Images acquired at 12 min post-luciferin injection were used for analysis. Digital images were recorded and analyzed using Living Image software (Caliper LifeSciences). Images were analyzed with a consistent region-of-interest (ROI) placed over each hindlimb to calculate a bioluminescence signal. A bioluminescence signal value of 80,000 photons/s was used to define a engraftment threshold, as this level corresponds to the histological detection of one or more GFP^+ myofiber (see FIG. 8A). BLI imaging was performed one month post-transplant unless otherwise stated.
MuSC culture and treatment. Following isolation, MuSCs were pelleted and resuspended into myogenic cell culture medium containing DMEM/F10 (50:50), 15% FBS, 2.5 ng/ml bFGF, and 1% penicillin/streptomycin. MuSCs were seeded at 1000 cells per well (24-well plate size wells, 2.0 cm^2 surface area) on laminin-tethered hydrogels of either 12 kPa (soft) or ˜10^6 kPa (rigid) rigidities. Cells were maintained at 37° C. in 5% CO2. Media was changed daily. […]

[3] = test system: old MuSCs transplanted into notexin-injured old muscle; assay: Syngeneic transplantation of cultured old MuSC progeny into notexin-injured old C57BL/6 muscles, engraftment; assay type: in vivo, mouse
Experimental: MuSC transplantation. MuSCs were transplanted immediately following FACS isolation or after collection from cell culture directly into the tibialis anterior muscle of recipient mice as previously described. Cells from GFP/Luciferase or Myf5^nLacZl+/Luciferase mice were transplanted into gender-matched, hindlimb-irradiated NOD/SCID (Jackson) mice. NOD/SCID (2-4 months of age, median 2 months) mice were anesthetized with ketamine (2.4 mg per mouse) and xylazine (240 μg per mouse) by intraperitoneal injection then were irradiated by a single dose of 18 Gy administered to the hindlimbs, with the rest of the body shielded in a lead jig. Transplantation was performed within three days post-irradiation. […] Freshly isolated or cultured cells were counted by hemocytometer and resuspended at desired cell concentrations in PBS with 2.5% goat serum and 1 mM EDTA. Cells were collected from hydrogel cultures by incubation with 0.5% trypsin in PBS for 2 min at 37° C. and counted using a hemocytometer. […]
Bioluminescence imaging. […] Digital images were recorded and analyzed using Living Image software (Caliper LifeSciences). Images were analyzed with a consistent region-of-interest (ROI) placed over each hindlimb to calculate a bioluminescence signal. […]

[4] = test system: tibialis anterior muscle of notexin-injured old mice; assay: In vivo force measurements after transplantation of cultured old MuSC progeny; parameters: species or system mouse; settings: injured old muscles transplanted with progeny of SB-treated old MuSCs; two months post-injury

## Oc1ccc(-c2nc(-c3ccncc3)c(-c3ccc(F)cc3)[nH]2)cc1 [SB202190]
[1]
  Transcription of the MuSC transcription factor Pax7: increased
  Transcription of the cell cycle inhibitor p21: decreased
  Transcription of the commitment marker Myogenin: decreased
[2]; old MuSCs cultured one week on soft hydrogel with 10 μM, one month post-transplant
  Engraftment frequency for 100-cell transplants: 41%
[2]; old MuSCs one week on soft hydrogels + SB (~300 cells), one month post-transplant
  Transplant engraftment frequency of the progeny of 10 old MuSCs: 79%
[2]; progeny of 10 old MuSCs after one week on soft hydrogels + SB, listed as SB
  Extent of engraftment (BLI and histology) compared to freshly isolated MuSCs: not as robust; also recorded: slightly reduced regenerative extent
[2]; young MuSCs cultured one week on soft hydrogel with 10 μM, one month post-transplant
  Engraftment frequency for 100-cell transplants: 45%
[2]
  Improvement of transplantation function of MuSCs cultured on rigid hydrogels: does not support significant improvement
[2]; listed as SB
  Improvement of transplantation function of MuSCs cultured on rigid hydrogels: did not support a similar SB-mediated improvement
[3]; progeny of 100 SB-treated old MuSCs, old recipient muscle, two months after transplantation
  Contribution to myofibers (histology): substantial contribution to myofibers
[3]; progeny of 100 old MuSCs cultured with 10 μM SB, notexin-injured old C57BL/6 mice, one month
  Engraftment frequency in aged syngeneic recipient muscle: 88%
[4]
  Specific tetanus force versus pre-injury levels: restored
  Specific twitch force versus pre-injury levels: exceeded
